Data reported in patent US9573957B2 (Boehringer Ingelheim International GmbH, priority 2013, dated 2017).

What was measured:
[1] = test system: synthesis of LTB4 in human whole blood; test: LTB4 production inhibition assay in human whole blood (HWB); assay type: cell-based; settings: heparinized human whole blood, 15 min at 37° C., Calcimycin 20 μM 30 min, plasma LTB4 by HTRF
Outline: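 Heparinized human whole blood preincubated with compound 15 min at 37° C, then stimulated with calcimycin (20 μM final) for 30 min at 37° C. Plasma separated by centrifugation; LTB4 measured by antibody-based homogeneous time-resolved fluorescence.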

[2] = molecular target: human LTA4 hydrolase (Homo sapiens (Human), UniProt P09960); test: LTA4H Enzyme assay (peptidase, Arg-AMC cleavage); assay type: biochemical; settings: LTA4H Enzyme 1 nM, Arg-AMC substrate 50 μM, room temperature 1 h, fluorescence
Outline: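 Peptidase activity of human LTA4H (1 nM final) on Arg-AMC (50 μM final), with compound, 1 h at room temperature. Buffer: 50 mM Tris-HCl pH 7.5, 100 mM KCl, 0.5% BSA.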

human LTA4 hydrolase, sequence (P09960 whole entry): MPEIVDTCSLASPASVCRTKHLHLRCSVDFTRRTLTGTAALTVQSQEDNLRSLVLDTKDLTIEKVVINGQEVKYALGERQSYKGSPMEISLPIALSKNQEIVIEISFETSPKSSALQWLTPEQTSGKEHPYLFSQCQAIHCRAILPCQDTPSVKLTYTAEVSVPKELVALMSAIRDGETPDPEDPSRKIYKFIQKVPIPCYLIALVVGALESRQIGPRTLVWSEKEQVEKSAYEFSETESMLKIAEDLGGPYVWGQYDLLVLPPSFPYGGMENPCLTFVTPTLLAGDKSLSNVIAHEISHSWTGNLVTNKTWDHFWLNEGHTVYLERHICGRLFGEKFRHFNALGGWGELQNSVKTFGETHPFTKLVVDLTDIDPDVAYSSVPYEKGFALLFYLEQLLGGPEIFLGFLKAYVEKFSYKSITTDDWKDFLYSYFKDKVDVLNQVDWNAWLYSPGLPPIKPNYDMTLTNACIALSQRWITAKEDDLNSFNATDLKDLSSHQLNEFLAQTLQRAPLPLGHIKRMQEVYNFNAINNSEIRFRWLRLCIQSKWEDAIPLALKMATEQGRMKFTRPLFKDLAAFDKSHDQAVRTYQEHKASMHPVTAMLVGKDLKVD

Compound | IC50 [1] [nM] | IC50 [2] [nM]
O=C(N1CCN(Cc2ccc3cc(Oc4ccc(-c5ccn[nH]5)cn4)ccc3n2)CC1)C1(O)CCCC1 [Example 119, (1-Hydroxy-cyclopentyl)-(4-{6-[5-(2H-pyrazol-3-yl)-pyridin-2-yloxy]-quinolin-2-ylmethyl}-piperazin-1-yl)-methanone] | 1200 | 8.6
O=C(CO)N1CCN(CC2Cc3ccc(Oc4ccc(-c5ccn[nH]5)cn4)cc3O2)CC1 (stereo not drawn) [Example 65, 2-Hydroxy-1-(4-{6-[5-(2H-pyrazol-3-yl)-pyridin-2-yloxy]-2,3-dihydro-benzofuran-2-ylmethyl}-piperazin-1-yl)-ethanone] | 560 | 4.6
CC(C)[C@@H](O)C(=O)N1CCN(Cc2ccc3cc(Oc4ccc(-c5ccn[nH]5)cn4)ccc3n2)CC1 [Example 120, (R)-2-Hydroxy-3-methyl-1-(4-{6-[5-(2H-pyrazol-3-yl)-pyridin-2-yloxy]-quinolin-2-ylmethyl}-piperazin-1-yl)-butan-1-one] | 700 | 5.9
CC(=O)N1CCN(Cc2ccc3cc(Oc4ncc(-c5ccn[nH]5)cn4)ccc3c2)CC1 [Example 25, 1-(4-{6-[5-(2H-Pyrazol-3-yl)-pyrimidin-2-yloxy]-naphthalen-2-ylmethyl}-piperazin-1-yl)-ethanone] | 520 | 1.7
CN(C)C(=O)N1CCN(Cc2ccc3cc(Oc4ncc(-c5ccn[nH]5)cn4)ccc3c2)CC1 [Example 34, 4-{6-[5-(2H-Pyrazol-3-yl)-pyrimidin-2-yloxy]-naphthalen-2-ylmethyl}-piperazine-1-carboxylic acid dimethylamide] | 430 | 0.81
CC(=O)N[C@H]1CCN(Cc2ccc3cc(Oc4ccc(-c5ccn[nH]5)cn4)ccc3c2)C1 [Example 13, N-((S)-1-{6-[5-(2H-Pyrazol-3-yl)-pyridin-2-yloxy]-naphthalen-2-ylmethyl}-pyrrolidin-3-yl)-acetamide] | 290 | 0.79
CO[C@H](C)C(=O)N1CC2CCC(C1)N2Cc1ccc2cc(Oc3ccc(-c4ccn[nH]4)cn3)ccc2n1 [Example 52, (R)-2-Methoxy-1-(8-{6-[5-(2H-pyrazol-3-yl)-pyridin-2-yloxy]-quinolin-2-ylmethyl}-3,8-diaza-bicyclo[3.2.1]oct-3-yl)-propan-1-one] | 150 | 0.77
O=C([C@@H]1CCC[C@@H]1O)N1CCN(Cc2ccc3cc(Oc4ccc(-c5ccn[nH]5)cn4)ccc3n2)CC1 [Example 151, ((1R,2S)-2-Hydroxy-cyclopentyl)-(4-{6-[5-(2H-pyrazol-3-yl)-pyridin-2-yloxy]-quinolin-2-ylmethyl}-piperazin-1-yl)-methanone] | 800 | 6.1
O=C1OCCN1C1CCN(CCC2COc3cc(Oc4ccc(-c5ccn[nH]5)cn4)ccc32)CC1 (stereo not drawn) [Example 69, 3-[1-(2-{6-[5-(2H-Pyrazol-3-yl)-pyridin-2-yloxy]-2,3-dihydro-benzofuran-3-yl}-ethyl)-piperidin-4-yl]-oxazolidin-2-one] | 210 | 0.75
O=C(C1CCOCC1)N1CCN(Cc2ccc3cc(Oc4ccc(-c5ccn[nH]5)cn4)ccc3n2)CC1 [Example 131, (4-{6-[5-(2H-Pyrazol-3-yl)-pyridin-2-yloxy]-quinolin-2-ylmethyl}-piperazin-1-yl)-(tetrahydro-pyran-4-yl)-methanone] | 360 | 2.3
CC1(O)CC(C(=O)N2CCN(Cc3ccc4cc(Oc5ccc(-c6ccn[nH]6)cn5)ccc4n3)CC2)C1 (stereo not drawn) [Example 150, (3-Hydroxy-3-methyl-cyclobutyl)-(4-{6-[5-(2H-pyrazol-3-yl)-pyridin-2-yloxy]-quinolin-2-ylmethyl}-piperazin-1-yl)-methanone] | 490 | 3.4
OC1CCN(Cc2ccc3cc(Oc4ncc(-c5ccn[nH]5)cn4)ccc3c2)CC1 [Example 26, 1-{6-[5-(2H-Pyrazol-3-yl)-pyrimidin-2-yloxy]-naphthalen-2-ylmethyl}-piperidin-4-ol] | 240 | 2.3
CCCOCC(=O)N1CCN(Cc2ccc3cc(Oc4ccc(-c5ccn[nH]5)cn4)ccc3n2)CC1 [Example 144, 2-Propoxy-1-(4-{6-[5-(2H-pyrazol-3-yl)-pyridin-2-yloxy]-quinolin-2-ylmethyl}-piperazin-1-yl)-ethanone] | 660 | 2.3
CC(C)(O)C(=O)N1CCN(CCC2COc3cc(Oc4ccc(-c5ccn[nH]5)cn4)ccc32)CC1 (stereo not drawn) [Example 81, 2-Hydroxy-2-methyl-1-[4-(2-{6-[5-(2H-pyrazol-3-yl)-pyridin-2-yloxy]-2,3-dihydro-benzofuran-3-yl}-ethyl)-piperazin-1-yl]-propan-1-one] | 580 | 2.2
C[C@@H](O)CC(=O)N1CCN(Cc2ccc3cc(Oc4ccc(-c5ccn[nH]5)cn4)ccc3n2)CC1 [Example 121, (R)-3-Hydroxy-1-(4-{6-[5-(2H-pyrazol-3-yl)-pyridin-2-yloxy]-quinolin-2-ylmethyl}-piperazin-1-yl)-butan-1-one] | 620 | 4.9
CS(=O)(=O)NC1CCN(Cc2coc3cc(Oc4ccc(-c5ccn[nH]5)cn4)ccc23)CC1 [Example 105, N-(1-{6-[5-(2H-Pyrazol-3-yl)-pyridin-2-yloxy]-benzofuran-3-ylmethyl}-piperidin-4-yl)-methanesulfonamide] | 210 | 0.81
CC(=O)N1CCN(Cc2cn3cc(Oc4ccc(-c5ccn[nH]5)cc4)ccc3n2)CC1 [Example 95, 1-(4-{6-[4-(2H-Pyrazol-3-yl)-phenoxy]-imidazo[1,2-a]pyridin-2-ylmethyl}-piperazin-1-yl)-ethanone] | 280 | 0.59
COCCCC(=O)N1CCN(Cc2ccc3cc(Oc4ccc(-c5ccn[nH]5)cn4)ccc3n2)CC1 [Example 142, 4-Methoxy-1-(4-{6-[5-(2H-pyrazol-3-yl)-pyridin-2-yloxy]-quinolin-2-ylmethyl}-piperazin-1-yl)-butan-1-one] | 930 | 2.5
O=C([C@@H]1CCCO1)N1CCN(Cc2ccc3cc(Oc4ccc(-c5ccn[nH]5)cn4)ccc3n2)CC1 [Example 132, (4-{6-[5-(2H-Pyrazol-3-yl)-pyridin-2-yloxy]-quinolin-2-ylmethyl}-piperazin-1-yl)-(S)-tetrahydro-furan-2-yl-methanone] | 630 | 2.9
CS(=O)(=O)N1CCN(Cc2ccc3cc(Oc4ccc(-c5ccn[nH]5)cn4)ccc3n2)CC1 [Example 66, 2-(4-Methanesulfonyl-piperazin-1-ylmethyl)-6-[5-(2H-pyrazol-3-yl)-pyridin-2-yloxy]-quinoline] | 430 | 1.7

The remaining lines, values ahead:

IC50 [1] [nM] | IC50 [2] [nM] | Compound
110 | 0.53 | CC1(O)CN(Cc2ccc3cc(Oc4ccc(-c5ccn[nH]5)cn4)ccc3c2)C1 [Example 11, 3-Methyl-1-{6-[5-(2H-pyrazol-3-yl)-pyridin-2-yloxy]-naphthalen-2-ylmethyl}-azetidin-3-ol]
200 | 0.47 | CC(C#N)C(=O)N1CCN(Cc2ccc3cc(Oc4ccc(-c5ccn[nH]5)cn4)ccc3n2)CC1 (stereo not drawn) [Example 149, 2-Methyl-3-oxo-3-(4-{6-[5-(2H-pyrazol-3-yl)-pyridin-2-yloxy]-quinolin-2-ylmethyl}-piperazin-1-yl)-propionitrile]
140 | 0.36 | O=C1[C@@H](O)CCN1C1CCN(Cc2coc3cc(Oc4ccc(-c5ccn[nH]5)cn4)ccc23)CC1 [Example 109, (S)-3-Hydroxy-1-(1-{6-[5-(2H-pyrazol-3-yl)-pyridin-2-yloxy]-benzofuran-3-ylmethyl}-piperidin-4-yl)-pyrrolidin-2-one]
170 | 0.68 | O=C(CN1CCN(Cc2coc3cc(Oc4ccc(-c5ccn[nH]5)cn4)ccc23)CC1)N1CCCC1 [Example 111, 2-(4-{6-[5-(2H-Pyrazol-3-yl)-pyridin-2-yloxy]-benzofuran-3-ylmethyl}-piperazin-1-yl)-1-pyrrolidin-1-yl-ethanone]
190 | 0.92 | CO[C@H](C)C(=O)N1CCN(CCc2coc3cc(Oc4ccc(-c5ccn[nH]5)cn4)ccc23)CC1 [Example 78, (R)-2-Methoxy-1-[4-(2-{6-[5-(2H-pyrazol-3-yl)-pyridin-2-yloxy]-benzofuran-3-yl}-ethyl)-piperazin-1-yl]-propan-1-one]
120 | 0.38 | CC(=O)NCC1CCN(Cc2coc3cc(Oc4ccc(-c5ccn[nH]5)cn4)ccc23)CC1 [Example 106, N-(1-{6-[5-(2H-Pyrazol-3-yl)-pyridin-2-yloxy]-benzofuran-3-ylmethyl}-piperidin-4-ylmethyl)-acetamide]
150 | 0.56 | CC(=O)NC1CCN(Cc2coc3cc(Oc4ccc(-c5ccn[nH]5)cn4)ccc23)CC1 [Example 104, N-(1-{6-[5-(2H-Pyrazol-3-yl)-pyridin-2-yloxy]-benzofuran-3-ylmethyl}-piperidin-4-yl)-acetamide]
120 | 0.43 | O=C(CO)N1CCC2(CCN(Cc3coc4cc(Oc5ccc(-c6ccn[nH]6)cn5)ccc34)C2)C1 (stereo not drawn) [Example 115, 2-Hydroxy-1-(7-{6-[5-(2H-pyrazol-3-yl)-pyridin-2-yloxy]-benzofuran-3-ylmethyl}-2,7-diaza-spiro[4.4]non-2-yl)-ethanone]
130 | 0.64 | OC[C@@H]1CCN(Cc2ccc3cc(Oc4ccc(-c5ccn[nH]5)cn4)ccc3c2)C1 [Example 22, ((R)-1-{6-[5-(2H-Pyrazol-3-yl)-pyridin-2-yloxy]-naphthalen-2-ylmethyl}-pyrrolidin-3-yl)-methanol]
200 | 1.4 | NC(=O)C1CCN(Cc2ccc3cc(Oc4ncc(-c5ccn[nH]5)cn4)ccc3c2)CC1 [Example 27, 1-{6-[5-(2H-Pyrazol-3-yl)-pyrimidin-2-yloxy]-naphthalen-2-ylmethyl}-piperidine-4-carboxylic acid amide]
